In patent US20230364121A1 (priority 2020, published 2023):
Read-outs that look alike come from different tables or passages of the source.

Legend:
[1] = system: mock infected BHK cells; assay: Cytotoxicity in mock infected BHK cells (MTT); format: cell-based, hamster; conditions: Table 2B; MTT, 3 days
Experimental: (§1) To determine the cytotoxicity, cells were seeded at an initial density of 1×10^6 cells/mL in 96 well plates containing Minimum Essential Medium with Earles's salts (MEM-E), L-glutamine, 1 mM sodium pyruvate and 25 mg/L kanamycin, supplemented with 10% fetal bovine serum. Cell cultures were then incubated at 37° C. in a humidified 5% CO2 atmosphere in the absence or presence of serial dilutions of test compounds. Cell viability was determined by the MTT method.
(§2) Uninfected cells in the presence of serially diluted compound were used to assess the cytotoxicity of compounds.

[2] = system: mock infected MES-1 cells; assay: Cytotoxicity in mock infected MES-1 cells (MTT); format: cell-based; conditions: Table 3B, 3 days
Experimental: as §1

[3] = system: HCoV; assay: microbe, parasite or virus in culture; format: cell-based, human coronavirus
[4] = biological target: nsp12 NiRAN active-site (Severe acute respiratory syndrome coronavirus, UniProt P0C6X7); assay: biochemical; format: biochemical, SARS-CoV
[5] = system: HCoV; assay: microbe, parasite or virus in culture; format: cell-based, human coronavirus; remark: listed apart in the source
[6] = Cytotoxicity in mock infected MES-1 cells (MTT); format: cell-based; conditions: mock infected MES-1 cells, Table 3A
Experimental: as §1

[7] = Cytotoxicity in mock infected BHK cells (MTT); format: cell-based, hamster; conditions: hamster
Experimental: as §1, §2

[8] = system: Huh7 cells; conditions: human
[9] = system: human coronavirus alpha-229E; assay: microbe, parasite or virus in culture; format: cell-based, HCoV-229E; conditions: for EC90: read-out: Virus Yield Reduction Assay EC90; for EC50: Huh-7, 120 h, read-out: Neutral Red Assay EC50
[10] = biological target: T1, SARS-Cov-1 nsp12:7L8:8 polymerase complex (Severe acute respiratory syndrome coronavirus, UniProt P0C6X7); assay: biochemical; format: biochemical
[11] = biological target: T1, SARS-Cov-1 nsp12:7L8:8 polymerase complex; format: biochemical
[12] = system: SARS-CoV and SARS-CoV-2 RTCs; format: biochemical
[13] = biological target: nsp12:7:8 RTC (Severe acute respiratory syndrome coronavirus, UniProt P0C6X7); format: biochemical, SARS-CoV
[14] = Bronchoalveolar lavage and plasma PK / safety study in healthy participants; format: in vivo, human
Experimental: Two cohorts of 8 healthy participants have been enrolled to receive AT-527 at 275 or 550 mg BID orally for 2.5 days. At 4 and 12 h following the last dose, each participant (4/timepoint/cohort) underwent a single bronchoalveolar lavage (BAL) via a standard bronchoscope. Intensive plasma PK sampling was also performed after the last dose. BAL and plasma samples were assayed for AT-273. AT-273 levels in lung epithelial lining fluid (ELF) were calculated by correcting for urea levels in the BAL and the corresponding plasma samples. Safety assessments included adverse events (AEs), vital signs, electrocardiograms (ECGs), and standard laboratory tests.

[15] = system: HCoV-229E; assay: Virus-induced CPE assay, HCoV-229E in BHK-21 cells (MTT); format: cell-based; conditions: Human coronavirus 229E, BHK-21, 72 h, BHK-21; dye staining; 3-day incubation; read-out: EC50
Experimental: In an initial screening, BHK-21 cells acutely infected with a seasonal human alpha coronavirus, HCoV-229E, were exposed to serial dilutions of Compound 1A.
BHK-21 cells: Test compounds were dissolved in DMSO at 100 mM and then diluted in Minimum Essential Medium with Earle's salts (MEM-E) containing 1 mM sodium pyruvate and 25 μg/mL kanamycin, supplemented with 10% FBS (growth medium) to final concentrations of 100, 20, 4 and 0.8 μM (two […] replica plates each). After BHK-21 cells were grown to confluency in 96-well plates, growth medium was replaced with fresh maintenance medium (growth medium with 1% inactivated FBS in place of 10% FBS) containing serially diluted test compound and HCoV-229E at a multiplicity of infection (MOI) of 0.01. Uninfected cells in the presence of serially diluted compound were used to assess the cytotoxicity of compounds. After a 3-day incubation at 37° C. in a humidified 5% CO2 atmosphere, cell viability was determined by the MTT method (Pauwels, R et al. J. Virol. Methods 20(4):309-321 (1988)).

[16] = unidentified human coronavirus, 72 h
[17] = mock infected BHK cells, Table 2A, MTT, 3 days
[18] = unidentified human coronavirus, BHK-21, 72 h
[19] = unidentified human coronavirus, Huh-7, 72 h
[20] = AT-527 550 mg BID orally 2.5 days, 4 and 12 h after last dose

## CC(C)[C@H](N)C(=O)O[C@@H]1[C@@H](CO)O[C@@H](n2ccc(N)nc2=O)[C@]1(C)O [drawing 245]
[1]
  CC50: > 100 µM

## CNc1nc(N)nc2c1ncn2[C@@H]1O[C@H](CO[P@](=O)(N[C@@H](C)C(=O)OC(C)C)Oc2ccccc2)[C@@H](O)[C@@]1(C)F [drawing 254]
[2]
  CC50: > 100 µM
[3]
  EC50: 2.2 µM

## Cn1c[n+]([C@@H]2O[C@H](COP(=O)([O-])OP(=O)(O)OP(=O)(O)O)[C@@H](O)[C@H]2O)c2nc(N)[nH]c(=O)c21 [^m7GTP]
[4]
  inhibition of nsp8 labeling / transfer of UTP to nsp8: poorly inhibit

## CNc1nc(N)nc2c1ncn2[C@@H]1O[C@H](CO[P@@](=O)(N[C@@H](C)C(=O)OC(C)C)Oc2ccccc2)[C@@H](O)[C@@]1(C)F [drawing 239]
[1]
  CC50: > 100 µM
[5]
  EC50: 2 µM

## CNc1nc(N)nc2c1ncn2[C@@H]1O[C@H](CO[P@](=O)(N[C@@H](C)C(=O)OC(C)C)Oc2ccccc2)[C@@H](O)[C@@]1(C)F [drawing 240]
[1]
  CC50: > 100 µM
[5]
  EC50: 2.9 µM

## CNc1nc(N)nc2c1ncn2[C@@H]1O[C@H](CO[P@@](=O)(N[C@@H](C)C(=O)OC(C)C)Oc2ccccc2)[C@@H](O)[C@@]1(C)F [drawing 246]
[6]
  CC50 at 3 days: > 100 µM
[3]; [16]
  EC50: 1.6 µM

## CNc1nc(N)nc2c1ncn2[C@@H]1O[C@H](CO[P@@](=O)(N[C@@H](C)C(=O)OC(C)C)Oc2ccccc2)[C@@H](O)[C@@]1(C)F [drawing 232]
[7]; [17]
  CC50 at 3 days: > 100 µM
[5]; [18]
  EC50: 1.6 µM

## CCC(CC)COC(=O)[C@H](C)N[P@](=O)(OC[C@H]1O[C@@](C#N)(c2ccc3c(N)ncnn23)[C@H](O)[C@@H]1O)Oc1ccccc1 [drawing 251]
[6]
  CC50 at 3 days: > 100 µM
[3]; [16]
  EC50: 6 µM

## CCN(CCO)CCCC(C)Nc1ccnc2cc(Cl)ccc12 (stereo not shown) [hydroxychloroquine, reference compound]
[8]
  CC50: 26 µM
[9]
  EC90: < 0.048 µM
[9]; [19]
  EC90: < 0.05 µM
[9]; unidentified human coronavirus
  EC50: 7.4 µM

## CC(C)(CO)C(=O)SCCOP(=O)(NCc1ccccc1)OC[C@H]1O[C@@H](n2cnc3c(=O)[nH]c(N)nc32)[C@](C)(O)[C@@H]1O (stereo partly shown) [drawing 236]
[7]; [17]
  CC50 at 3 days: 65 µM
[5]; [18]
  EC50: 1.7 µM

## C[C@@]1(F)[C@H](O)[C@@H](COP(=O)(O)OP(=O)(O)OP(=O)(O)O)O[C@H]1n1ccc(=O)[nH]c1=O [2′C-Me 2′F-UTP, reference compound]
[10]
  EC50: 20 to 40 µM
[11]
  incorporation efficacy compared to misincorporation at a U position: around 40%

## CNc1nc(N)nc2c1ncn2[C@@H]1O[C@H](CO[P@](=O)(N[C@@H](C)C(=O)OC(C)C)Oc2ccccc2)[C@@H](O)[C@@]1(C)F [drawing 233]
[7]; [17]
  CC50 at 3 days: > 100 µM
[5]; [18]
  EC50: 2.5 µM

## CNc1nc(N)nc2c1ncn2[C@@H]1O[C@H](CO[P@](=O)(N[C@@H](C)C(=O)OC(C)C)Oc2ccccc2)[C@@H](O)[C@@]1(C)F [drawing 247]
[6]
  CC50 at 3 days: > 100 µM
[3]; [16]
  EC50: 2 µM

## CC(C)[C@H](N)C(=O)O[C@@H]1[C@@H](CO)O[C@@H](n2ccc(N)nc2=O)[C@]1(C)O [drawing 259]
[2]
  CC50: > 100 µM

## CCC(CC)COC(=O)[C@H](C)N[P@](=O)(OC[C@H]1O[C@@](C#N)(c2ccc3c(N)ncnn23)[C@H](O)[C@@H]1O)Oc1ccccc1 [drawing 244]
[1]
  CC50: > 100 µM
[5]
  EC50: 7 µM

## CCC(CC)COC(=O)[C@H](C)N[P@](=O)(OC[C@H]1O[C@@](C#N)(c2ccc3c(N)ncnn23)[C@H](O)[C@@H]1O)Oc1ccccc1 [drawing 237]
[7]; [17]
  CC50 at 3 days: > 100 µM
[5]; [18]
  EC50: 7.2 µM

## CCC(CC)COC(=O)[C@H](C)N[P@](=O)(OC[C@H]1O[C@@](C#N)(c2ccc3c(N)ncnn23)[C@H](O)[C@@H]1O)Oc1ccccc1 [drawing 258]
[2]
  CC50: > 100 µM
[3]
  EC50: 5.5 µM

## CC(C)[C@H](N)C(=O)O[C@@H]1[C@@H](CO)O[C@@H](n2ccc(N)nc2=O)[C@]1(C)O [drawing 238]
[7]; [17]
  CC50 at 3 days: > 100 µM
[5]; [18]
  EC50: > 100 µM

## CC(C)OC(=O)[C@H](C)N[P@](=O)(OCC1O[C@@H](n2ccc(=O)[nH]c2=O)[C@](C)(F)[C@@H]1O)Oc1ccccc1 (stereo partly shown) [drawing 234]
[7]; [17]
  CC50 at 3 days: > 100 µM
[5]; [18]
  EC50: > 100 µM

## CC(C)(CO)C(=O)SCCOP(=O)(NCc1ccccc1)OC[C@H]1O[C@@H](n2cnc3c(=O)[nH]c(N)nc32)[C@](C)(O)[C@@H]1O (stereo partly shown) [drawing 257]
[2]
  CC50: 82 µM
[3]
  EC50: 1.7 µM

## CC(C)(CO)C(=O)SCCOP(=O)(NCc1ccccc1)OC[C@H]1O[C@@H](n2cnc3c(=O)[nH]c(N)nc32)[C@](C)(O)[C@@H]1O (stereo partly shown) [drawing 250]
[6]
  CC50 at 3 days: 82 µM
[3]; [16]
  EC50: 1.9 µM

## C[C@@]1(F)[C@H](O)[C@@H](COP(=O)(O)OP(=O)(O)OP(=O)(O)O)O[C@H]1n1ccc(=O)[nH]c1=O [STP, 5′-triphosphate 2′-fluoro-2′-C-methyl uridine]
[11]
  discrimination as substrate of the SARS-CoV RDRP: > 250 fold
[12]; 5-fold higher concentrations than UTP
  competition with UTP: not competitive
[12]; STP: UTP 20:1
  competition with UTP: not competitive
[13]
  inhibition of RNA synthesis from poly(C) template: virtually inactive
[4]
  fold less efficient at blocking nsp8 labeling / UMPylation than AT-9010: ~5 fold
[4]; IC50 of nsp8 labeling against GTP (FIG. 13C)
  IC50: 5 ± 0.8 µM
[4]; IC50 of nsp8 labeling against UTP (FIG. 13C)
  IC50: 8.2 ± 1.4 µM
[4]; IC50 of nsp8 labeling, competition with UTP (FIG. 13A)
  IC50: 4.6 ± 0.2 µM

## CNc1nc(N)nc2c1ncn2[C@@H]1O[C@H](CO[P@@](=O)(N[C@@H](C)C(=O)OC(C)C)Oc2ccccc2)[C@@H](O)[C@@]1(C)F [drawing 253]
[2]
  CC50: > 100 µM
[3]
  EC50: 2 µM

## CCN(CC)CCCC(C)Nc1ccnc2cc(Cl)ccc12 (stereo not shown) [chloroquine, reference compound]
[8]
  CC50: 21 µM
[9]; [19]
  EC90: < 0.05 µM
[9]; unidentified human coronavirus
  EC50: 8.1 µM

## CC(C)OC(=O)[C@H](C)N[P@](=O)(OCC1O[C@@H](n2ccc(=O)[nH]c2=O)[C@](C)(F)[C@@H]1O)Oc1ccccc1 (stereo partly shown) [drawing 255]
[2]
  CC50: > 100 µM
[3]
  EC50: > 100 µM

## CC(C)[C@H](N)C(=O)O[C@@H]1[C@@H](CO)O[C@@H](n2ccc(N)nc2=O)[C@]1(C)O [drawing 252]
[6]
  CC50 at 3 days: > 100 µM
[3]; [16]
  EC50: > 100 µM

## CC(C)(CO)C(=O)SCCOP(=O)(NCc1ccccc1)OC[C@H]1O[C@@H](n2cnc3c(=O)[nH]c(N)nc32)[C@](C)(O)[C@@H]1O (stereo partly shown) [drawing 243]
[1]
  CC50: 65 µM
[5]
  EC50: 1.9 µM

## C[C@@]1(F)[C@H](O)[C@@H](CO)O[C@H]1n1cnc2c(=O)[nH]c(N)nc21 [AT-273]
[14]; [20]
  Mean AT-273 level in lung ELF: ≥ 0.5 µM
  Mean AT-273 level in plasma: ≥ 0.5 µM
[14]; P<0.001
  correlation of ELF and plasma levels (r): 0.86

## CC(C)OC(=O)[C@H](C)N[P@](=O)(OCC1O[C@@H](n2ccc(=O)[nH]c2=O)[C@](C)(F)[C@@H]1O)Oc1ccccc1 (stereo partly shown) [drawing 248]
[6]
  CC50 at 3 days: > 100 µM
[3]; [16]
  EC50: > 100 µM

## CC(C)OC(=O)[C@H](C)N[P@](=O)(OCC1O[C@@H](n2ccc(=O)[nH]c2=O)[C@](C)(F)[C@@H]1O)Oc1ccccc1 (stereo partly shown) [drawing 241]
[1]
  CC50: > 100 µM
[5]
  EC50: > 100 µM

## CC(C)OC(=O)[C@H](C)N[P@](=O)(OC[C@H]1O[C@@H](n2ccc(=O)[nH]c2=O)[C@](C)(F)[C@@H]1O)Oc1ccccc1 [sofosbuvir, reference compound]
[7]; uninfected BHK-21 cells, BHK-21, Table 5
  CC50 at 3 days: > 100 µM
[15]
  EC50: > 100 µM
[4]
  fold less efficient at blocking nsp8 labeling / UMPylation than AT-9010: about 5 fold
